Reference: US7919487B2, “Heteroaryl compounds” (Synta Pharmaceuticals Corporation, priority 2004, dated 2011)

These compounds were tested on IL-12 production in human PBMC or THP-1 cells (assay: Human in vitro assay: inhibition of IL-12 production in human PBMC or THP-1 cells (ELISA)). Settings: THP-1, human PBMC or THP-1 cells, IFNγ plus LPS or SAC stimulation, representative in vitro data.
Format: cell-based
Source text: The biological activities of the compounds of the invention can be evaluated by a number of cell-based assays. One of such assays can be conducted using cells from human peripheral blood mononuclear cells (PBMC) or human monocytic cell line (THP-1). The cells are stimulated with a combination of human interferon-γ (IFNγ) and lipopolysaccharide or a combination of IFNγ and Staphylococcus aureus Cowan I in the presence of a test compound. The level of inhibition of IL-12 production can be measured by determining the amount of p70 by using a sandwich ELISA assay with anti-human IL-12 antibodies. IC50 of the test compound can then be determined. Specifically, PBMC or THP-1 cells are incubated with the test compound. Cell viability was assessed using the bioreduction of MTS [3-(4,5-dimethylthiazol-2-yl)-5-(3-carboxymethoxyphenyl)-2-(4-sulfophenyl)-2H-tetrazolium] (Promega, Madison, Wis.).
Reagents. Staphylococcus aureus Cowan I (SAC) was obtained from Calbiochem (La Jolla, Calif.), and lipopolysaccharide (LPS, Serratia marscencens) was obtained from Sigma (St Louis, Mo.). Human and mouse recombinant IFNγ were purchased from Boehringer Mannheim (Mannheim, Germany) and Pharmingen (San Diego, Calif.), respectively.
Human In Vitro Assay. Human PBMC were isolated by centrifugation using Ficoll-Paque (Pharmacia Biotech, Uppsala, Sweden) and prepared in RPMI medium supplemented with 10% fetal calf serum (FCS), 100 U/mL penicillin, and 100 μg/mL streptomycin. PBMC were plated in wells of a 96-well plate at a concentration of 5×10^5 cells/well, and primed by adding IFNγ (30 U/mL) for 22 h and stimulated by adding LPS (1 μg/mL), or by adding IFNγ (100 U/mL) and then stimulated by adding SAC (0.01%). A test pyrimidine compound was dissolved in DMSO, and added to wells of the 96-well plate. The final DMSO concentration was adjusted to 0.25% in all cultures, including the compound-free control. Human THP-1 cells were plated in wells, primed by adding IFNγ (100 U/mL) for 22 h and stimulated by adding SAC (0.025%) in the presence of different concentrations of the pyrimidine compound. Cell-free supernatants were taken 18 h later for measurement of cytokines. Cell viability was assessed using the bioreduction of MTS. Cell survival was estimated by determining the ratio of the absorbance in compound-treated groups versus compound-free control.
The supernatant was assayed for the amount of IL-12p40, IL-12p70, or IL-10 by using a sandwich ELISA with anti-human antibodies, i.e., a Human IL-12 p40 ELISA kit from R&D Systems (Berkeley, Calif.), and a Human IL-12 p70 or IL-10 ELISA kit from Endogen (Cambridge, Mass.). Assays were based on the manufacturer's instructions.
The biological activities of compounds were tested on human PBMC or THP-1 cells.

Structure (SMILES)	IC50
COc1nc(N/N=C/c2cn(C)c3ccccc23)nc(N(C(C)C)C(C)C)n1 [Compound 1, Diisopropyl-{4-methoxy-6-[N′-(1-methyl-1H-indol-3-ylmethylene)-hydrazino]-[1,3,5]triazin-2-yl}-amine]	13000 nM
COc1nc(N/N=C/c2c[nH]c3ccccc23)nc(N(C(C)C)C(C)C)n1 [Compound 2, {4-[N′-(1H-Indol-3-ylmethylene)-hydrazino]-6-methoxy-[1,3,5]triazin-2-yl}-diisopropyl-amine]	13600 nM
COc1nc(N/N=C/c2c[nH]c3c(C)cccc23)nc(N(C(C)C)C(C)C)n1 [Compound 3, Diisopropyl-{4-methoxy-6-[N′-(7-methyl-1H-indol-3-ylmethylene)-hydrazino]-[1,3,5]triazin-2-yl}-amine]	7800 nM
COc1nc(N/N=C/c2c[nH]c3ccc(F)cc23)nc(N(C(C)C)C(C)C)n1 [Compound 4, {4-[N′-(5-Fluoro-1H-indol-3-ylmethylene)-hydrazino]-6-methoxy-[1,3,5]triazin-2-yl}-diisopropyl-amine]	13000 nM
COc1nc(N/N=C/c2cn(C(C)=O)c3ccccc23)nc(N(C(C)C)C(C)C)n1 [Compound 5, 1-{3-[(4-Diisopropylamino-6-methoxy-[1,3,5]triazin-2-yl)-hydrazonomethyl]-indol-1-yl}-ethanone]	12000 nM
COc1ccc(CCOc2nc(N/N=C/c3c[nH]c4ccccc34)nc(N3CCSC3)n2)cc1OC [Compound 7, N-{4-[2-(3,4-Dimethoxy-phenyl)-ethoxy]-6-thiazolidin-3-yl-[1,3,5]triazin-2-yl}-N′-(1H-indol-3-ylmethylene)-hydrazine]	20 to 53 nM
C(=N\Nc1nc(OCCc2ccccn2)nc(N2CCC3(CC2)OCCO3)n1)/c1c[nH]c2ccccc12 [Compound 8, N-[4-(1,4-Dioxa-8-aza-spiro[4.5]dec-8-yl)-6-(2-pyridin-2-yl-ethoxy)-[1,3,5]triazin-2-yl]-N′-(1H-indol-3-ylmethylene)-hydrazine]	500 nM
O=C1CCN(c2nc(N/N=C/c3c[nH]c4ccccc34)nc(OCCc3ccccn3)n2)CC1 [Compound 11, 1-[4-[N′-(1H-Indol-3-ylmethylene)-hydrazino]-6-(2-pyridin-2-yl-ethoxy)-[1,3,5]triazin-2-yl]-piperidin-4-one]	500 nM
COc1ccc(CCOc2nc(N/N=C/c3cccc(C)c3)cc(N(C)C)n2)cc1OC [Compound 15, {2-[2-(3,4-Dimethoxy-phenyl)-ethoxy]-6-[N′-(3-methyl-benzylidene)-hydrazino]-pyrimidin-4-yl}-dimethyl-amine]	20 to 56 nM
COc1ccc(CCOc2cc(N(C)C)nc(N/N=C/c3cccc(C)c3)n2)cc1OC [Compound 16, {6-[2-(3,4-Dimethoxy-phenyl)-ethoxy]-2-[N′-(3-methyl-benzylidene)-hydrazino]-pyrimidin-4-yl}-dimethyl-amine]	1060 nM
COc1ccc(CCNc2nccc(N/N=C/c3cccc(C)c3)n2)cc1OC [Compound 17, [2-(3,4-Dimethoxy-phenyl)-ethyl]-{4-[N′-(3-methyl-benzylidene)-hydrazino]-pyrimidin-2-yl}-amine]	636 nM
Cc1cccc(/C=N/Nc2cc(N)nc(N/N=C/c3cccc(C)c3)n2)c1 [Compound 19, 2,6-Bis-[N′-(3-methyl-benzylidene)-hydrazino]-pyrimidin-4-ylamine]	119 nM
COc1ccc(CCOc2nc(N/N=C/c3cccc(C)c3)nc(-n3ccnc3)n2)cc1OC [Compound 21, N-{4-[2-(3,4-Dimethoxy-phenyl)-ethoxy]-6-imidazol-1-yl-[1,3,5]triazin-2yl}-N′-(3-methyl-benzylidene)-hydrazine]	103 nM
Cc1cccc(/C=N/Nc2nc(CCCO)cc(N(C)C)n2)c1 [Compound 27, 3-{6-Dimethylamino-2-[N′-(3-methyl-benzylidene)-hydrazino]-pyrimidin-4-yl}-propan-1-ol]	9000 nM
Cc1cccc(/C=N/Nc2nc(CCCOC(=O)Nc3ccc([N+](=O)[O-])cc3)cc(N(C)C)n2)c1 [Compound 28, (4-Nitro-phenyl)-carbamic acid 3-{6-dimethylamino-2-[N′-(3-methyl-benzylidene)-hydrazino]-pyrimidin-4-yl}-propyl ester]	1400 nM
Cc1cccc(/C=N/Nc2nc(CCCOC(=O)Nc3ccc(C(F)(F)F)cc3)cc(N(C)C)n2)c1 [Compound 29, (4-Trifluoromethyl-phenyl)-carbamic acid 3-{6-dimethylamino-2-[N′-(3-methyl-benzylidene)-hydrazino]-pyrimidin-4-yl}-propyl ester]	10000 nM

Structure (SMILES)	IC50
CCN(CC)c1cc(N/N=C/c2cccc(C)c2)nc(OCCN2CCOCC2)n1 [Compound 30, Diethyl-[6-[N′-(3-methyl-benzylidene)-hydrazino]-2-(2-morpholin-4-yl-ethoxy)-pyrimidin-4-yl]-amine]	875 nM
COCCN(C)c1cc(N/N=C/c2cccc(C)c2)nc(OCCN2CCOCC2)n1 [Compound 31, (2-Methoxy-ethyl)-methyl-[6-[N′-(3-methyl-benzylidene)-hydrazino]-2-(2-morpholin-4-yl-ethoxy)-pyrimidin-4-yl]-amine]	674 nM
O=C(Nc1ccc2c(c1)CCC2)Nc1cccc(-c2ccncc2)n1 [Compound 100, 1-[2,4′]Bipyridinyl-6-yl-3-indan-5-yl-urea]	148 nM
Cc1[nH]c2ccc(NC(=O)c3cc(OCCN4CCOCC4)cc(-c4ccncc4)n3)cc2c1C [Compound 101, 4-(2-Morpholin-4-yl-ethoxy)-[2,4′]bipyridinyl-6-carboxylic acid (2,3-dimethyl-1H-indol-5-yl)-amide]	20 nM
COCCN(C)c1cc(C(=O)Nc2ccc3[nH]c(C)c(C)c3c2)nc(-c2ccncc2)c1 [Compound 102, 4-[(2-Methoxy-ethyl)-methyl-amino]-[2,4′]bipyridinyl-6-carboxylic acid(2,3-dimethyl-1H-indol-5-yl)-amide]	2.6 nM
Cc1[nH]c2ccc(NC(=O)c3cccc(-c4ccncc4F)n3)cc2c1C [Compound 103, 3′-Fluoro-[2,4′]bipyridinyl-6-carboxylic acid(2,3-dimethyl-1H-indol-5-yl)-amide]	158 nM
Cc1[nH]c2ccc(NC(=O)c3cccc(-c4cncnc4)n3)cc2c1C [Compound 104, 6-Pyrimidin-5-yl-pyridine-2-carboxylic acid(2,3-dimethyl-1H-indol-5-yl)-amide]	> 1000 nM
Cc1[nH]c2ccc(NC(=O)c3cccc(-c4ccsc4)n3)cc2c1C [Compound 105, 6-Thiophen-3-yl-pyridine-2-carboxylic acid(2,3-dimethyl-1H-indol-5-yl)-amide]	> 1000 nM
Cc1[nH]c2ccc(NC(=O)c3cccc(-c4cccnc4)n3)cc2c1C [Compound 106, [2,3′]Bipyridinyl-6-carboxylic acid(2,3-dimethyl-1H-indol-5-yl)-amide]	> 1000 nM
Cc1[nH]c2ccc(NC(=O)c3cccc(-c4ccnc(F)c4)n3)cc2c1C [Compound 107, 2′-Fluoro-[2,4′]bipyridinyl-6-carboxylic acid(2,3-dimethyl-1H-indol-5-yl)-amide]	193 nM
Cc1[nH]c2ccc(NC(=O)c3cccc(-c4cn[nH]c4)n3)cc2c1C [Compound 108, 6-(1H-Pyrazol-4-yl)-pyridine-2-carboxylic acid(2,3-dimethyl-1H-indol-5-yl)-amide]	218 nM
Cc1cccc(/C=N/Nc2cc(OCCN3CCOCC3)nc(-c3ccncc3)n2)c1 [Compound 141, (E)-4-(2-(6-(2-(3-methylbenzylidene)hydrazinyl)-2-(pyridin-4-yl)pyrimidin-4-yloxy)ethyl)morpholine]	94.6 nM
COCc1cc(N/N=C/c2cccc(C)c2)nc(-c2ccncc2)n1 [Compound 142, (E)-4-(methoxymethyl)-6-(2-(3-methylbenzylidene)hydrazinyl)-2-(pyridin-4-yl)pyrimidine]	80 nM
Cc1cccc(/C=N/Nc2nc(N)nc(-c3cccnc3)n2)c1 [Compound 143, (E)-4-(2-(3-methylbenzylidene)hydrazinyl)-6-(pyridin-3-yl)-1,3,5-triazin-2-amine]	> 1000 nM
CSc1nc(NC(=O)Nc2cccc(C)c2)nc(-c2ccncc2)n1 [Compound 144, 1-(4-(methylthio)-6-(pyridin-4-yl)-1,3,5-triazin-2-yl)-3-m-tolylurea]	128 nM
